Results reported in US20230266309A1, “PROTEIN MICROARRAY, USE AND DETECTION METHOD THEREOF” (NATIONAL CHENG KUNG UNIVERSITY, priority 2021, published 2023).

Target: T1, S proteins of wild-type SARS-CoV-2 virus and the SARS-CoV-2 D614G, B.1.1.7, B.1.351, P1, B.1.617, B.1.617.1, B.1.617.2, and B.1.617.3 variants (Homo sapiens, UniProt Q9BYF1)
T1 construct: purchased Sino Biological Inc. (Mainland China)
Type: binding
Conditions: FIG. 10; for ACE2 binding to the S protein: SARS-CoV-2 B.1.617.3 variant (excepted from the dose-dependent decrease); for ACE2 binding to the S proteins: wild-type and D614G, B.1.1.7, B.1.351, P1, B.1.617, B.1.617.1, B.1.617.2 variants

T1 sequence (Q9BYF1 18-740, stated change not applied): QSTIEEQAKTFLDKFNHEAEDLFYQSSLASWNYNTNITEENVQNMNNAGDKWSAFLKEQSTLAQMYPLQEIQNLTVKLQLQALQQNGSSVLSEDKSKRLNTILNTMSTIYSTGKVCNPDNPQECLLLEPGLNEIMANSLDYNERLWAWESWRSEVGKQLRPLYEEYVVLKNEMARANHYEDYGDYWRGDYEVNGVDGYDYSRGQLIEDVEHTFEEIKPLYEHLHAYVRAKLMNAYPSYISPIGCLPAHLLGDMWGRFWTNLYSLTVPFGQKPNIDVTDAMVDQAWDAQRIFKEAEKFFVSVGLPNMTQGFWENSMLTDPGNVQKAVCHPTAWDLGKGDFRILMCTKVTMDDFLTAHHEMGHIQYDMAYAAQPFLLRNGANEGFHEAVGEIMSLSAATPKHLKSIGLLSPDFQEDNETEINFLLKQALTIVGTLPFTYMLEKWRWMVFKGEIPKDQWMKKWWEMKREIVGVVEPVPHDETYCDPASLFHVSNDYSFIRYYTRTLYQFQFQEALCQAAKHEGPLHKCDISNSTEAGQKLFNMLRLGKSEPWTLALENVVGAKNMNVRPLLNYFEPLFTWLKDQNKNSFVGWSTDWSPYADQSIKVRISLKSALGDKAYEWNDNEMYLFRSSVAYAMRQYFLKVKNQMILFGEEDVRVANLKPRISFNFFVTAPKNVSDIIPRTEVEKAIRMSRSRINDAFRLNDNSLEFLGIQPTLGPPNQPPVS

| SMILES | ACE2 binding to the S protein | ACE2 binding to the S proteins |
| --- | --- | --- |
| CCC[C@H](N[C@@H](C)C(=O)N1[C@H](C(=O)O)C[C@@H]2CCCC[C@@H]21)C(=O)OCC [Perindopril] | except for the SARS-CoV-2 B.1.617.3 variant | dose-dependently decrease |
| CCOC(=O)[C@H](CCc1ccccc1)N[C@@H](C)C(=O)N1[C@H](C(=O)O)C[C@@H]2CCC[C@@H]21 [Ramipril] | except for the SARS-CoV-2 B.1.617.3 variant | dose-dependently decrease |
